Measurements reported in patent US12576051B2, “Methods and composition for treating respiratory obstructive diseases” (The Regents of the University of California, priority 2019, dated 2026).
“Also recorded” adds a separate entry of the source.

Key:
[1] = test system: porcine airway mucus; assay: Mucolytic activity on porcine airway mucin (electrophoresis, Coomassie stain); format: biochemical; conditions: for protein bands at 600 and 200 kDa of airway mucus: NaHCO3-Ringer, 60 minutes at 37° C., hydrochloride
Description: FIG. 9 presents the effect of compound 646 on porcine airway mucus. Mucus collected from porcine upper airways diluted in NaHCO3-Ringer, was treated with different concentrations of compound 646 (0, 0.25. 0.5 and 1 mM), for 60 minutes at 37° C. In lane 1, representative protein pattern after electrophoresis protein separation of untreated porcine airway mucus (40 μg/well).
Airway mucus supernatant diluted in NaHCO3-Ringer was treated with or without cysteamine bitartrate under basic and acidic conditions at 37° C. for 60 minutes.
Biological specimens: Isolated native porcine airways were used as experimental model. Sections of open trachea tissue (approx. 2 cm^2) were carefully rinsed and cover small volume of NaHCO3-Ringer solution. Mucus secretion was stimulated with Prostaglandin E2 (PGE2, 10−6 M). Secreted mucus over the dissected open airways was carefully collected, aliquoted and immediately frozen at −80° C.
Mucolytic activity on porcine airway mucin: One hundred microliters of collected porcine airway supernatant was incubated with Cysteamine bitartrate or compound 646 at final concentrations from 0 to 2 mM as indicated in the text. Mucolytic activity was ended with 30 microliters of SDS-sample buffer solution. 45 microliters of each sample/well were separated in an electrophoresis gel 4-12% Tris-Glycine. After electrophoresis gels were stained with Coomassie Blue solution.
Mucolytic activity of synthetic compound 646. Respiratory airway mucus contained Muc5aC and Muc5B mucins. In order to determine whether compound 646 be used as a mucolytic agent for respiratory airways, supernatant of mucus collected from porcine airways was treated with compound 646 at different concentration (0-1 mM) for 1 h at 37° C.
Mucolytic activity of cysteamine bitartrate under basic and acidic conditions. To validate whether mucolytic activity of cysteamine bitartrate depends on changes of pH, airway mucus supernatant was incubated for 1 h at 37° C. with or without 2 mM cysteamine bitartrate diluted in NaHCO3. An additional airway mucus sample was treated with cysteamine bitartrate and supplemented with 4 μL of 0.1 N of acetic solution pH 4.5. […] The reduction, however, was approximately half of the decrease seen under acidic conditions.

[2] = test system: secreted Muc5ac mucin; assay: Mucolytic activity on secreted Muc5ac mucin of open porcine trachea sections (western blot); conditions: 2 mM, HCO3-Ringer with PGE2 (1 uM), 10 minutes at 37° C.; FIG. 18
Description: FIG. 18 provides the mucolytic activity of compounds on secreted Muc5ac mucin. Epithelial luminal surface of open porcine trachea sections (˜2 cm^2) were covered with HCO3-Ringer solution ([…]) containing PGE2 (1 uM), and alcian blue (0.02%), with or without compounds at a 2 mM final concentration, and incubated for 10 minutes at 37° C. Equal volumes of each collected sample were separated on vertical electrophoresis, and then transfer to an immobilon-P membrane for western blot analysis. […] Densitometric signal of the untreated sample, as control, was normalized to 100% (% arbitrary units).
Epithelial luminal surface of open porcine trachea sections (˜2 cm^2) were covered with […] of HCO3-Ringer solution containing PGE2 (1 uM), in the presence or absence of compounds at a 2 mM final concentration, and incubated for 5 minutes at 37° C. Afterwards, […] of sterile 7% NaCl inhaled solution was added and incubated for another 5 mins at 37° C. Equal volumes of each collected sample were separated on vertical electrophoresis, and then transferred to an immobilon-P membrane for western blot analysis. […] Densitometric signal of the non-treated sample, as control, was normalized to 100% (% arbitrary units).

2-aminoethane-1-d-1-thiol hydrochloride [Compound 646]
protein bands at 600 and 200 kDa of airway mucus ([1]; 0.5 mM): two major changes in the proteins at the level of 600 and 200 kDa; also recorded: major changes on two protein bands | protein bands at 600 and 200 kDa of airway mucus ([1]; 1 mM): two major changes in the proteins at the level of 600 and 200 kDa; also recorded: major changes on two protein bands | mucolytic effect on airway mucus ([1]; mucus collected from porcine airways, summary of FIG. 9): mucolytic effect, similar to cysteamine | native Muc5ac levels on epithelial luminal surfaces (immunoblot) [2]: decreased native Muc5ac levels
